In paper PMC5074076, “Novel minimal physiologically-based model for the prediction of passive tubular reabsorption and renal excretion clearance” (European Journal of Pharmaceutical Sciences, 2016):
Read-outs that look alike come from different tables or passages of the source.

Legend:
[1] = Observed clearance ratio and fraction reabsorbed (Freab, Freab′) calculated from CLR, fu,p and GFR; conditions: for Freab: observed/apparent, 1 - CLR/(GFR x fu,p), GFR 120 mL/min
Experimental: The clearance ratio was calculated from clinical data using Eqs. […] For the remaining drugs the fraction reabsorbed (Freab) was calculated using Eq.
GFR values for healthy subjects may vary as a result of biological as well as inter-individual variation and also the method of measurement. […] Individual GFR values for subjects in clinical trials databases were generally not available.
In the proposed model, the nephron is represented as five compartments, namely the glomerulus and four tubular regions, as depicted in Fig. 1. The tubular compartments in the model, listed in anatomical order starting from the glomerulus are: the proximal tubule (PT), the loop of Henle (LoH), the distal tubule (DT) and the collecting duct (CD). […] The relationship between Freab′ and Freab is shown in Eq. (11). The predicted overall Freab′ was calculated from the predicted Freab′ in each (i) tubular region (Freab,i′), as shown in Eq. (12).

[2] = Ionisation classification at pH 6.5 from pKa; format: physicochemical; conditions: predominant species (> 50%) at pH 6.5 from measured or calculated pKa
Excerpt: (§1) The pKa values associated with ionisable centres identified within a given drug were used to calculate the fraction of drug ionised at pH 6.5. Drugs were then classified into groups as follows: drugs with > 50% unionised at pH 6.5 were classified as “Neutral”; drugs with > 50% ionised as mono −/di −/tri-protic acids or bases were classified as “Acid” or “Base”, respectively; “Zwitterions” were classified as drugs with > 50% ionised, with the major ionised species having no net charge; all other drugs were classified as amphoteric. […] LogD6.5 for neutral, amphoteric and zwitterion drugs were assumed to be equal to LogD7.4.

[3] = cited from earlier work
[4] = LogD7.4 octanol-buffer, shake-flask (or ACD / BioByte); conditions: pH 7.4; for logD: octanol/buffer
Excerpt: as §1

[5] = LogD6.5 estimated from LogD7.4 and pKa; conditions: for logD: octanol/buffer
Excerpt: as §1

[6] = Caco-2 apparent permeability (Papp), apical to basolateral, pH 6.5-7.4 gradient, efflux inhibitor cocktail; conditions: human, Caco-2, pH 6.5
Experimental: The assay was performed using the apical to basolateral pH gradient format of pH 6.5 to pH 7.4. […] The efflux transporter inhibitor cocktail was used to minimise the effect of efflux transporters expressed in Caco-2 cells (e.g. P-glycoprotein, BCRP and MRP2) on the estimate of apical to basolateral Papp of substrates for such transporters.

[7] = calculated from observed CLR, fu,p and GFR
[8] = healthy adult subjects, overall weighted mean of literature values, absolute (not normalised), ref Supplementary Results Table S2.1
[9] = healthy subjects, plasma and urine data from same subjects, normalised for subject weight and body surface area where necessary, ref Table S2.1
[10] = overall weighted mean of values obtained from a literature survey, ref Table S2.1

Compound	Apparent Freab [1, 7]	Apparent Freab’ [1, 7]	CLR [3, 8] [mL/min]	Overall weighted mean CLR [3, 9] [mL/min]	CLR Observed [3, 10] [mL/min]	also measured
Cc1cc(=O)n(-c2ccccc2)n1C [Antipyrine]	–	–	–	–	–	Apparent Freab ([1]; human, in vivo): 0.989; Apparent Freab’ ([1]; human, in vivo): 0.997; Ionisation at pH 6.5 [2]: Neutral; CLR ([3]; human, in vivo): 1.22 mL/min; CLR Observed ([3]; human, in vivo): 1.22 mL/min; Overall weighted mean CLR ([3]; human, in vivo): 1.2 mL/min
CC(C)NCC(O)COc1ccc(CC(N)=O)cc1 (centres unmarked) [Atenolol]	-0.247	-0.249	–	–	–	Ionisation at pH 6.5 [2]: Base
C[C@H]1C[C@H]2[C@@H]3CCC4=CC(=O)C=C[C@]4(C)[C@@]3(F)[C@@H](O)C[C@]2(C)[C@@]1(O)C(=O)CO [Betamethasone]	0.780	0.787	9.50	9.5	9.50	Freab [1]: 0.78; logD [4]: 1.99; Ionisation at pH 6.5 [2]: Neutral; logD ([5]; pH 6.5): 1.99
Cn1c(=O)c2c(ncn2C)n(C)c1=O [Caffeine]	0.987	0.995	1.06	1.1	1.06	Freab [1]: 0.99; Freab ([1]; listed as caffeine): ≥ 0.99
CN(C)CCC(c1ccc(Cl)cc1)c1ccccn1 (centres unmarked) [Chlorpheniramine]	–	–	–	–	–	Papp A→B at 2 h [6]: 28.5 ×10⁻⁶ cm/s
CN(C)CCCC1(c2ccc(F)cc2)OCc2cc(C#N)ccc21 (centres unmarked) [Citalopram]	-0.086	-0.087	65.2	65.2	65.17	Ionisation at pH 6.5 [2]: Base
Nc1ccc(S(=O)(=O)c2ccc(N)cc2)cc1 [Dapsone]	–	–	5.50	5.5	5.50	logD [4]: 0.85; Ionisation at pH 6.5 [2]: Neutral; logD ([5]; pH 6.5): 0.85; Papp A→B at 2 h [6]: 49.7 ×10⁻⁶ cm/s
OC(Cn1cncn1)(Cn1cncn1)c1ccc(F)cc1F [Fluconazole]	0.848	0.855	15.7	15.7	15.68	Freab [1]: 0.85; Papp A→B at 2 h [6]: 36.3 ×10⁻⁶ cm/s
CC[C@@H](C(N)=O)N1CCCC1=O [Levetiracetam]	0.636	0.641	39.4	39.4	39.35	Freab [1]: 0.64; Ionisation at pH 6.5 [2]: Neutral; Papp A→B at 2 h [6]: 15.7 ×10⁻⁶ cm/s
CC(=O)NC[C@H]1CN(c2ccc(N3CCOCC3)c(F)c2)C(=O)O1 [Linezolid]	0.576	0.581	39.5	39.5	39.54	Freab [1]: 0.58
Cc1ncc([N+](=O)[O-])n1CCO [Metronidazole]	0.918	0.925	9.64	9.6	9.64	Freab [1]: 0.92; Ionisation at pH 6.5 [2]: Neutral; Papp A→B at 2 h [6]: 64.7 ×10⁻⁶ cm/s
Cc1cccc(C)c1OCC(C)N (centres unmarked) [Mexiletine]	-0.252	-0.254	71.6	71.6	71.61	–
COc1c(N2C[C@@H]3CCCN[C@@H]3C2)c(F)cc2c(=O)c(C(=O)O)cn(C3CC3)c12 [Moxifloxacin]	–	–	–	–	–	Ionisation at pH 6.5 [2]: Zwitterion
C[C@]12C=CC(=O)C=C1CC[C@@H]1[C@@H]2[C@@H](O)C[C@@]2(C)[C@H]1CC[C@]2(O)C(=O)CO [Prednisolone]	0.099	0.100	34.3	34.3	34.30	Freab [1]: 0.10; Ionisation at pH 6.5 [2]: Neutral; LogD6.5 ([5]; calculated from pKa and LogD7.4): […]
CCCc1cc(=O)[nH]c(=S)[nH]1 [Propylthiouracil]	0.833	0.840	3.20	3.2	3.20	Freab [1]: 0.83
CCN(CC)CCNC(=O)c1ccc(NS(C)(=O)=O)cc1 [Sematilide]	–	–	–	262.0	–	–
N[C@@H](CC(=O)N1CCn2c(nnc2C(F)(F)F)C1)Cc1cc(F)c(F)cc1F [Sitagliptin]	–	–	–	371.2	–	–
Cc1cn([C@@H]2C[C@@H](O)[C@H](CO)O2)c(=O)[nH]c1=O [Telbivudine]	–	–	–	116.7	–	–

Compound	Apparent Freab [1, 7]	Apparent Freab’ [1, 7]	CLR [3, 8] [mL/min]	Overall weighted mean CLR [3, 9] [mL/min]	CLR Observed [3, 10] [mL/min]	also measured
CC1CN(c2cc3c(cc2F)c(=O)c(C(=O)O)cn3-c2ccc(F)cc2F)CCN1 (centres unmarked) [Temafloxacin]	–	–	–	122.5	–	–
CO[C@@]1(NC(=O)C(C(=O)O)c2ccsc2)C(=O)N2[C@@H](C(=O)O)C(C)(C)S[C@@H]21 (some centres unmarked) [Temocillin]	–	–	–	39.8	–	–
C[C@H](Cn1cnc2c(N)ncnc21)OCP(=O)(O)O [Tenofovir]	–	–	–	220.0	–	–
CC(CC(c1ccccc1)c1ccccc1)NC(C)(C)C (centres unmarked) [Terodiline]	–	–	–	11.1	–	–
CN(C)[C@@H]1C(O)=C(C(N)=O)C(=O)[C@@]2(O)C(O)=C3C(=O)c4c(O)cccc4[C@@](C)(O)[C@H]3C[C@@H]12 [Tetracycline]	0.053	0.053	86.4	86.4	86.38	Freab [1]: 0.05; Papp A→B at 2 h [6]: 1.1 ×10⁻⁶ cm/s
Cn1c(=O)c2[nH]cnc2n(C)c1=O [Theophylline]	–	–	5.50	5.5	5.50	LogD7.4 [4]: − 0.09; Ionisation at pH 6.5 [2]: Neutral; LogD6.5 ([5]; pH 6.5): − 0.06
CC(C)(C)NC[C@H](O)COc1nsnc1N1CCOCC1 [Timolol]	–	–	–	125.1	–	–
CCS(=O)(=O)CCn1c([N+](=O)[O-])cnc1C [Tinidazole]	–	–	–	11.3	–	–
Clc1ccc2nsnc2c1NC1=NCCN1 [Tizanidine]	–	–	–	66.2	–	–
C[C@@H](O)[C@H]1C(=O)N2C(C(=O)O)=C(S[C@H]3C[C@@H](C(=O)N4CC[C@H](NC(=O)CNC(=N)N)C4)N(C)C3)[C@H](C)[C@H]12 [Tomopenem]	–	–	–	77.7	–	–
COc1cc(Cc2cnc(N)nc2N)cc(OC)c1OC [Trimethoprim]	–	–	–	78.2	–	–
CCCC(CCC)C(=O)O [Valproic Acid]	–	–	–	0.2	–	–
CCCCC(=O)N(Cc1ccc(-c2ccccc2-c2nnn[nH]2)cc1)[C@H](C(=O)O)C(C)C [Valsartan]	–	–	–	11.2	–	–
c1cnc2cc3c(cc2n1)[C@@H]1CNC[C@H]3C1 [Varenicline]	–	–	–	118.6	–	–
CC(=O)N[C@H]1[C@H]([C@H](O)[C@H](O)CO)OC(C(=O)O)=C[C@@H]1N=C(N)N [Zanamivir]	–	–	–	89.1	–	–
Cc1cn([C@H]2C[C@H](N=[N+]=[N-])[C@@H](CO)O2)c(=O)[nH]c1=O [Zidovudine]	–	–	–	258.1	–	–
CN1CCN(C(=O)OC2c3nccnc3C(=O)N2c2ccc(Cl)cn2)CC1 (centres unmarked) [Zopiclone]	–	–	–	13.0	–	–
